Test results: PubChem BioAssay (NCI)
Where “and” joins values, the source holds several entries; their conditions need not be identical. Equal values may be shown once.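 Following 48 hours of exposure in 96-well plates, responses at five concentrations were used to interpolate endpoints linearly. At the GI50, growth is halved. TGI marks complete inhibition of growth.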

Assays:
Assay in all cases: NCI tumour cell line growth inhibition, 48 h
A498 renal = test system: A498 renal
MDA-MB-435 = test system: MDA-MB-435
MCF7 breast = test system: MCF7 breast
HOP-92 NSCLC = test system: HOP-92 NSCLC
SK-OV-3 ovarian = test system: SK-OV-3 ovarian
DLD-1 colon = test system: DLD-1 colon
UACC-257 melanoma = test system: UACC-257 melanoma
HL-60(TB) leukemia = test system: HL-60(TB) leukemia
DMS 114 small cell lung = test system: DMS 114 small cell lung
M14 melanoma = test system: M14 melanoma

SMILES	GI50 (A498 renal) [µM]	TGI (A498 renal) [µM]	GI50 (MDA-MB-435) [µM]	TGI (MDA-MB-435)	GI50 (MCF7 breast) [µM]	TGI (MCF7 breast)	GI50 (HOP-92 NSCLC) [µM]	TGI (HOP-92 NSCLC)	GI50 (SK-OV-3 ovarian) [µM]	TGI (SK-OV-3 ovarian) [µM]	TGI (DLD-1 colon) [µM]	GI50 (UACC-257 melanoma) [µM]	TGI (UACC-257 melanoma)	GI50 (HL-60(TB) leukemia) [µM]	TGI (HL-60(TB) leukemia)	TGI (DMS 114 small cell lung) [µM]	GI50 (M14 melanoma) [µM]	TGI (M14 melanoma)
CCN(CC)CCCC(C)Nc1ccnc2cc(Cl)ccc12 (configuration not stated)	> 100	> 100	20.3	43.3 µM and 37.3 µM	63.9	> 100 µM and 42.3 µM	52	> 100 µM and 44.9 µM	> 100	> 100	> 100	19.8	35.7 µM and > 62.1 µM	36.1	> 100 µM and 34.2 µM	56.4	18.5	32.5 µM and 28.4 µM
Cc1n[nH]c(=S)n(C)c1=S		> 100						> 100 µM		> 100	> 100					> 100		> 100 µM
COc1cc(-c2nccc3cc(OC)c(OC)cc23)ccc1O								> 100 µM		> 100	> 100		> 100 µM		67.4 µM			> 100 µM
N#CC12CCC1C1CCCCC12N1CCSCC1 (configuration not stated)		> 100						> 100 µM			> 100		> 10 µM		46.1 µM	> 100		
O=C1C(=O)N(c2ccc(Cl)cc2)C(=O)C(=O)C1c1nc2ccccc2o1		> 100						> 100 µM		> 100	> 100		> 100 µM		> 100 µM	> 100		> 100 µM
COC(=O)c1ccccc1N(C(=O)c1ccccc1)c1ccccc1C		80.1								69.1	> 100		> 100 µM		43.1 µM	> 100		73.1 µM
CCCCCOCC(O)CO (configuration not stated)		> 100						> 100 µM			> 100		> 100 µM			> 100		
O=C(Nc1cccc2c1C(=O)c1c(NC(=O)c3ccccc3)ccc(Nc3cccc4c3C(=O)c3ccccc3C4=O)c1C2=O)c1ccccc1		> 100								> 100	> 100		> 100 µM		> 100 µM	> 100		> 100 µM
Cc1c2ccn(O)cc2c(C)c2c1nc1ccccc12		55.6		> 100 µM		> 100 µM		38.5 µM		39.6	> 100		> 100 µM		38.3 µM	47.1		> 100 µM
BrC(Br)=C1C(=C(Br)Br)C(Br)C1Br (configuration not stated)		3.38		2.82 µM		1.31 µM		2.96 µM		12.7	1.98		5.3 µM			0.552		0.592 µM
O=C(O)C[C@@H](Cl)[C@H](NC(=O)OCc1ccccc1)C(=O)O		> 100						> 100 µM		> 100	> 100		> 100 µM		> 100 µM	> 100		> 100 µM
COc1cc(/C=C(\NC(=O)c2ccccc2)c2nc3ccc4c(c3[nH]2)C(=O)c2ccccc2C4=O)cc(OC)c1OC		> 100						> 100 µM		95.6	> 100		> 100 µM			> 100		> 100 µM
COc1ccc(/C(=N\NC(=O)NN)C(c2ccc(OC)cc2)C2(O)C(=O)Nc3c(Cl)cc(Cl)cc32)cc1 (configuration not stated)								> 100 µM			> 100		> 100 µM		> 100 µM	> 100		> 100 µM
Cn1c(=O)c(Oc2ccc(F)cc2F)cc2cnc(NC(C)(C)CO)nc21	> 15.9	> 25	> 25	> 25 µM	> 25	> 25 µM	7.44	> 25 µM	> 25	> 25		> 25	> 25 µM	> 25	> 25 µM		> 25	> 25 µM
CO[C@@H]1C=C[C@@]23c4cc5c(cc4CN(C[C@@H]2O)[C@H]3C1)OCO5								80.6 µM		> 100	> 100		> 100 µM		39.2 µM	> 100		31.5 µM
C=C(CN1CCN(c2ccc(C(F)(F)F)cc2)CC1)c1ccc(C(=O)Nc2ccccc2N)cc1	7.67	61.5	> 25.2	> 100 µM	10.9	> 100 µM	3.95	23.7 µM	12.1	> 100		2.39	> 100 µM	0.0732	0.279 µM		> 90.5	> 100 µM
